In paper PMC10436550, “Subacute toxicity evaluations of LPM3480392 in rats, a full µ-opioid receptor biased agonist” (Frontiers in Pharmacology, 2023):

How the values were obtained:
[1] = system: Sprague Dawley (SD) rats; assay: Ophthalmic examination; type: in vivo, rat; conditions: 2.4 mg/kg/day; both genders; end of dosing phase and recovery phase
Description: The examination was conducted on rats in control and 2.4 mg/kg/day groups at the end of dosing phase (Day 27) and at the end of recovery phase (Recovery day 27). The mydriasis (eye instillation, 1-2 drops/eye) was conducted using Mydrin-P (compound tropicamide eye drops) before examination. Binocular indirect ophthalmoscope was used to examine conjunctiva, cornea, iris, lens, anterior chamber, posterior chamber and fundus.

[2] = Body weight, 4-week subacute toxicity study; type: in vivo, Sprague Dawley (SD) rats
Description: Body weight was recorded twice a week during the dosing phase and then once a week during the recovery phase. Terminal body weight was recorded before each necropsy for calculating the organ weight ratios.

[3] = female rats, 0.6 mg/kg/day, Day 6
[4] = female rats, 0.6 mg/kg/day, Day 9
[5] = female rats, 0.6 mg/kg/day, Day 13
[6] = female rats, 0.6 mg/kg/day, Day 16
[7] = female rats, 0.6 mg/kg/day, Day 20
[8] = female rats, 0.6 mg/kg/day, Day 23
[9] = female rats, 0.6 mg/kg/day, Day 27
[10] = female rats, 0.6 mg/kg/day, Prior to 1st dosing
[11] = female rats, 0.6 mg/kg/day, Recovery day 5
[12] = female rats, 0.6 mg/kg/day, Recovery day 12
[13] = female rats, 0.6 mg/kg/day, Recovery day 19
[14] = female rats, 0.6 mg/kg/day, Recovery day 26
[15] = female rats, 1.2 mg/kg/day, Day 6
[16] = female rats, 1.2 mg/kg/day, Day 9
[17] = female rats, 1.2 mg/kg/day, Day 13
[18] = female rats, 1.2 mg/kg/day, Day 16
[19] = female rats, 1.2 mg/kg/day, Day 20
[20] = female rats, 1.2 mg/kg/day, Day 23
[21] = female rats, 1.2 mg/kg/day, Day 27
[22] = female rats, 1.2 mg/kg/day, Prior to 1st dosing
[23] = female rats, 1.2 mg/kg/day, Recovery day 5
[24] = female rats, 1.2 mg/kg/day, Recovery day 12
[25] = female rats, 1.2 mg/kg/day, Recovery day 19
[26] = female rats, 1.2 mg/kg/day, Recovery day 26
[27] = female rats, 2.4 mg/kg/day, Day 6
[28] = female rats, 2.4 mg/kg/day, Day 9
[29] = female rats, 2.4 mg/kg/day, Day 13
[30] = female rats, 2.4 mg/kg/day, Day 16
[31] = female rats, 2.4 mg/kg/day, Day 20
[32] = female rats, 2.4 mg/kg/day, Day 23
[33] = female rats, 2.4 mg/kg/day, Day 27
[34] = female rats, 2.4 mg/kg/day, Prior to 1st dosing
[35] = female rats, 2.4 mg/kg/day, Recovery day 5
[36] = female rats, 2.4 mg/kg/day, Recovery day 12
[37] = female rats, 2.4 mg/kg/day, Recovery day 19
[38] = female rats, 2.4 mg/kg/day, Recovery day 26
[39] = male rats, 0.6 mg/kg/day, Day 6
[40] = male rats, 0.6 mg/kg/day, Day 9
[41] = male rats, 0.6 mg/kg/day, Day 13
[42] = male rats, 0.6 mg/kg/day, Day 16
[43] = male rats, 0.6 mg/kg/day, Day 20
[44] = male rats, 0.6 mg/kg/day, Day 23
[45] = male rats, 0.6 mg/kg/day, Day 27
[46] = male rats, 0.6 mg/kg/day, Prior to 1st dosing
[47] = male rats, 0.6 mg/kg/day, Recovery day 5
[48] = male rats, 0.6 mg/kg/day, Recovery day 12
[49] = male rats, 0.6 mg/kg/day, Recovery day 19
[50] = male rats, 0.6 mg/kg/day, Recovery day 26
[51] = male rats, 1.2 mg/kg/day, Day 6
[52] = male rats, 1.2 mg/kg/day, Day 9
[53] = male rats, 1.2 mg/kg/day, Day 13
[54] = male rats, 1.2 mg/kg/day, Day 16
[55] = male rats, 1.2 mg/kg/day, Day 20
[56] = male rats, 1.2 mg/kg/day, Day 23
[57] = male rats, 1.2 mg/kg/day, Day 27
[58] = male rats, 1.2 mg/kg/day, Prior to 1st dosing
[59] = male rats, 1.2 mg/kg/day, Recovery day 5
[60] = male rats, 1.2 mg/kg/day, Recovery day 12
[61] = male rats, 1.2 mg/kg/day, Recovery day 19
[62] = male rats, 1.2 mg/kg/day, Recovery day 26
[63] = male rats, 2.4 mg/kg/day, Day 6
[64] = male rats, 2.4 mg/kg/day, Day 9
[65] = male rats, 2.4 mg/kg/day, Day 13
[66] = male rats, 2.4 mg/kg/day, Day 16
[67] = male rats, 2.4 mg/kg/day, Day 20
[68] = male rats, 2.4 mg/kg/day, Day 23
[69] = male rats, 2.4 mg/kg/day, Day 27
[70] = male rats, 2.4 mg/kg/day, Prior to 1st dosing
[71] = male rats, 2.4 mg/kg/day, Recovery day 5
[72] = male rats, 2.4 mg/kg/day, Recovery day 12
[73] = male rats, 2.4 mg/kg/day, Recovery day 19
[74] = male rats, 2.4 mg/kg/day, Recovery day 26

In the case of `Fc1ccc([C@]2(CCNCc3cccc(Cl)c3)CCO[C@]3(CCOC3)C2)nc1` [LPM3480392], the Ophthalmic examination findings [1] is reported as “No abnormalities”, the Body weight [2, 3] is reported as 194.0 ± 11.4 g and the “Body weight change rate” value [2, 3] is reported as 4.64%. For the same compound, the Body weight [2, 4] was 201.1 ± 13.7 g, the “Body weight change rate” value [2, 4] was 5.62% and the Body weight [2, 5] was 209.5 ± 13.4 g. The “Body weight change rate” value [2, 5] was 7.05%, the Body weight [2, 6] was 214.4 ± 13.2 g and the “Body weight change rate” value [2, 6] was 6.19%. The Body weight [2, 7] was 224.2 ± 15.1 g, the “Body weight change rate” value [2, 7] was 6.91% and the Body weight [2, 8] was 228.1 ± 15.3 g. For the same compound, the “Body weight change rate” value [2, 8] was 5.65%, the Body weight [2, 9] was 236.2 ± 15.3 g and the “Body weight change rate” value [2, 9] was 8.05%. The Body weight [2, 10] was 176.9 ± 7.3 g, the “Body weight change rate” value [2, 10] was −0.67% and the Body weight [2, 11] was 243.5 ± 9.3 g. For the same compound, the “Body weight change rate” value [2, 11] was 5.96%, the Body weight [2, 12] was 251.6 ± 10.2 g and the “Body weight change rate” value [2, 12] was 6.38%. For the same compound, the Body weight [2, 13] was 258.8 ± 12.5 g, the “Body weight change rate” value [2, 13] was 2.70% and the Body weight [2, 14] was 265.5 ± 15.7 g. The “Body weight change rate” value [2, 14] was 3.11%, the Body weight [2, 15] was 194.9 ± 10.5 g and the “Body weight change rate” value [2, 15] was 5.12%. The Body weight [2, 16] was 200.1 ± 12.1 g, the “Body weight change rate” value [2, 16] was 5.09% and the Body weight [2, 17] was 215.3 ± 11.3 g. The “Body weight change rate” value [2, 17] was 10.02%, the Body weight [2, 18] was 218.9 ± 12.3 g and the “Body weight change rate” value [2, 18] was 8.42%. For the same compound, the Body weight [2, 19] was 221.5 ± 14.8 g, the “Body weight change rate” value [2, 19] was 5.63% and the Body weight [2, 20] was 232.4 ± 16.4 g. For the same compound, the “Body weight change rate” value [2, 20] was 7.64%, the Body weight [2, 21] was 237.2 ± 15.4 g and the “Body weight change rate” value [2, 21] was 8.51%. For the same compound, the Body weight [2, 22] was 175.3 ± 7.7 g, the “Body weight change rate” value [2, 22] was −1.57% and the Body weight [2, 23] was 237.7 ± 13.0 g. The “Body weight change rate” value [2, 23] was 3.44%, the Body weight [2, 24] was 244.8 ± 13.2 g and the “Body weight change rate” value [2, 24] was 3.51%. The Body weight [2, 25] was 259.9 ± 16.5 g, the “Body weight change rate” value [2, 25] was 3.13% and the Body weight [2, 26] was 261.8 ± 22.7 g. The “Body weight change rate” value [2, 26] was 1.67%, the Body weight [2, 27] was 194.7 ± 11.9 g and the “Body weight change rate” value [2, 27] was 5.02%. The Body weight [2, 28] was 198.8 ± 14.7 g, the “Body weight change rate” value [2, 28] was 4.41% and the Body weight [2, 29] was 211.2 ± 13.0 g. For the same compound, the “Body weight change rate” value [2, 29] was 7.92%, the Body weight [2, 30] was 209.1 ± 13.2 g and the “Body weight change rate” value [2, 30] was 3.57%. For the same compound, the Body weight [2, 31] was 220.8 ± 15.5 g, the “Body weight change rate” value [2, 31] was 5.29% and the Body weight [2, 32] was 221.7 ± 19.8 g. The “Body weight change rate” value [2, 32] was 2.69%, the Body weight [2, 33] was 230.9 ± 19.3 g and the “Body weight change rate” value [2, 33] was 5.63%. For the same compound, the Body weight [2, 34] was 179.1 ± 8.3 g, the “Body weight change rate” value [2, 34] was 0.56% and the Body weight [2, 35] was 230.1 ± 19.1 g. The “Body weight change rate” value [2, 35] was 0.13%, the Body weight [2, 36] was 241.1 ± 21.0 g and the “Body weight change rate” value [2, 36] was 1.95%. The Body weight [2, 37] was 253.1 ± 25.8 g, the “Body weight change rate” value [2, 37] was 0.44% and the Body weight [2, 38] was 261.1 ± 25.5 g. For the same compound, the “Body weight change rate” value [2, 38] was 1.40%, the Body weight [2, 39] was 247.1 ± 9.6 g and the “Body weight change rate” value [2, 39] was 1.31%. The Body weight [2, 40] was 268.8 ± 11.6 g, the “Body weight change rate” value [2, 40] was 2.32% and the Body weight [2, 41] was 292.6 ± 13.5 g. For the same compound, the “Body weight change rate” value [2, 41] was 0.62%, the Body weight [2, 42] was 300.8 ± 12.5 g and the “Body weight change rate” value [2, 42] was −2.12%. For the same compound, the Body weight [2, 43] was 321.4 ± 15.8 g, the “Body weight change rate” value [2, 43] was −0.22% and the Body weight [2, 44] was 332.6 ± 17.3 g. The “Body weight change rate” value [2, 44] was −0.33%, the Body weight [2, 45] was 349.9 ± 20.1 g and the “Body weight change rate” value [2, 45] was −0.20%. For the same compound, the Body weight [2, 46] was 213.2 ± 11.1 g, the “Body weight change rate” value [2, 46] was 0.66% and the Body weight [2, 47] was 367.7 ± 23.5 g. For the same compound, the “Body weight change rate” value [2, 47] was −4.86%, the Body weight [2, 48] was 395.5 ± 24.5 g and the “Body weight change rate” value [2, 48] was −4.63%. The Body weight [2, 49] was 415.6 ± 25.4 g, the “Body weight change rate” value [2, 49] was −5.29% and the Body weight [2, 50] was 442.1 ± 24.4 g. For the same compound, the “Body weight change rate” value [2, 50] was −4.22%, the Body weight [2, 51] was 243.6 ± 12.3 g and the “Body weight change rate” value [2, 51] was −0.12%. For the same compound, the Body weight [2, 52] was 247.3 ± 10.6 g, the “Body weight change rate” value [2, 52] was −5.86% and the Body weight [2, 53] was 281.5 ± 15.7 g. The “Body weight change rate” value [2, 53] was −3.20%, the Body weight [2, 54] was 297.1 ± 19.6 g and the “Body weight change rate” value [2, 54] was −3.32%. The Body weight [2, 55] was 313.4 ± 22.6 g, the “Body weight change rate” value [2, 55] was −2.70% and the Body weight [2, 56] was 325.9 ± 21.5 g. For the same compound, the “Body weight change rate” value [2, 56] was −2.34%, the Body weight [2, 57] was 339.3 ± 23.2 g and the “Body weight change rate” value [2, 57] was −3.22%. For the same compound, the Body weight [2, 58] was 213.2 ± 9.4 g, the “Body weight change rate” value [2, 58] was 0.66% and the Body weight [2, 59] was 361.2 ± 14.2 g. For the same compound, the “Body weight change rate” value [2, 59] was −6.55%, the Body weight [2, 60] was 388.0 ± 14.5 g and the “Body weight change rate” value [2, 60] was −6.44%. The Body weight [2, 61] was 416.4 ± 19.3 g, the “Body weight change rate” value [2, 61] was −5.10% and the Body weight [2, 62] was 444.3 ± 23.9 g. The “Body weight change rate” value [2, 62] was −3.75%, the Body weight [2, 63] was 234.0 ± 21.8 g and the “Body weight change rate” value [2, 63] was −4.06%. For the same compound, the Body weight [2, 64] was 249.9 ± 31.9 g, the “Body weight change rate” value [2, 64] was −4.87% and the Body weight [2, 65] was 272.4 ± 27.9 g. For the same compound, the “Body weight change rate” value [2, 65] was −6.33%, the Body weight [2, 66] was 281.1 ± 31.2 g and the “Body weight change rate” value [2, 66] was −8.53%. The Body weight [2, 67] was 297.6 ± 36.8 g, the “Body weight change rate” value [2, 67] was −7.61% and the Body weight [2, 68] was 299.3 ± 36.1 g. The “Body weight change rate” value [2, 68] was −10.31%, the Body weight [2, 69] was 315.4 ± 36.4 g and the “Body weight change rate” value [2, 69] was −10.04%. The Body weight [2, 70] was 213.9 ± 12.9 g, the “Body weight change rate” value [2, 70] was 0.99% and the Body weight [2, 71] was 329.2 ± 48.5 g. The “Body weight change rate” value [2, 71] was −14.83%, the Body weight [2, 72] was 365.9 ± 50.0 g and the “Body weight change rate” value [2, 72] was −11.77%. For the same compound, the Body weight [2, 73] was 386.7 ± 51.8 g, the “Body weight change rate” value [2, 73] was −11.87% and the Body weight [2, 74] was 413.2 ± 56.3 g. For the same compound, the “Body weight change rate” value [2, 74] was −10.49%.
